Here are results for 1 compound from ChEMBL document CHEMBL3804815, “Aloperine and Its Derivatives as a New Class of HIV-1 Entry Inhibitors” (ACS Med Chem Lett, 2016).

The nature of data set [1]: Cytotoxicity against human MT4 cells assessed as reduction in cell viability after 3 days by CellTiter-Glo luminescent assay. The class given is cell-based. Background: In ATP-based viability assays light output follows the ATP content of the culture.
For data set [2], the system named is Human immunodeficiency virus 1. As to the kind of experiment: Antiviral activity against HIV1 NL4-3 infected in human MT4 cells assessed as reduction in viral replication measured on day 3 post infection by Nano-Glo luciferase reporter gene assay. The class given is functional, organism-based. As to conditions: Human immunodeficiency virus 1, NL4-3, MT4, 72 h. Background: Reporter assays use an easily measured gene product as a stand-in for the process of interest.

Data set [3] relates to Human immunodeficiency virus 1. As to the kind of experiment: Antiviral activity against pseudotype HIV1 CE1176 harboring HIV1 subtype C Env assessed as inhibition of viral infection in human TZM-bl cells measured 2 days post infection by luciferase reporter gene assay. The class given is functional, organism-based. As to conditions: Human immunodeficiency virus 1, CE1176, TZM-bl, 48 h.

For data set [4], the system named is Human immunodeficiency virus 1. As to the kind of experiment: Antiviral activity against pseudotype HIV1 CNE55 harboring HIV1 subtype CRF01_AE Env assessed as inhibition of viral infection in human TZM-bl cells measured 2 days post infection by luciferase reporter gene assay. As to conditions: Human immunodeficiency virus 1, CNE55, TZM-bl, 48 h. The class given is functional, organism-based.

Data set [5] relates to Human immunodeficiency virus 1. As to the kind of experiment: Antiviral activity against pseudotype HIV1 CE0217 harboring HIV1 subtype C Env assessed as inhibition of viral infection in human TZM-bl cells measured 2 days post infection by luciferase reporter gene assay. The class given is functional, organism-based. The note with it: Human immunodeficiency virus 1, CE0217, TZM-bl, 48 h.

The test system of data set [6] is Human immunodeficiency virus 1. As to the kind of experiment: Antiviral activity against pseudotype HIV1 X1632 harboring HIV1 subtype G Env assessed as inhibition of viral infection in human TZM-bl cells measured 2 days post infection by luciferase reporter gene assay. The class given is functional, organism-based. The note with it: Human immunodeficiency virus 1, X1632, TZM-bl, 48 h.

For data set [7], the system named is Human immunodeficiency virus 1. As to the kind of experiment: Antiviral activity against pseudotype HIV1 BJOX2000 harboring HIV1 subtype CRF07_BC Env assessed as inhibition of viral infection in human TZM-bl cells measured 2 days post infection by luciferase reporter gene assay. The class given is functional, organism-based. The note with it: Human immunodeficiency virus 1, BJOX2000, TZM-bl, 48 h.

Data set [8] has as its system Human immunodeficiency virus 1. As to the kind of experiment: Antiviral activity against pseudotype HIV1 25710 harboring HIV1 subtype C Env assessed as inhibition of viral infection in human TZM-bl cells measured 2 days post infection by luciferase reporter gene assay. The note with it: Human immunodeficiency virus 1, 25710, TZM-bl, 48 h. The class given is functional, organism-based.

The subject of data set [9] is Human immunodeficiency virus 1. As to the kind of experiment: Antiviral activity against pseudotype HIV1 TRO11 harboring HIV1 subtype B Env assessed as inhibition of viral infection in human TZM-bl cells measured 2 days post infection by luciferase reporter gene assay. The class given is functional, organism-based. The note with it: Human immunodeficiency virus 1, TRO11, TZM-bl, 48 h.

The subject of data set [10] is Human immunodeficiency virus 1. As to the kind of experiment: Antiviral activity against pseudotype HIV1 CH119 harboring HIV1 subtype CRF07_BC Env assessed as inhibition of viral infection in human TZM-bl cells measured 2 days post infection by luciferase reporter gene assay. The class given is functional, organism-based. As to conditions: Human immunodeficiency virus 1, CH119, TZM-bl, 48 h.

A short description of data set [11]: Cytotoxicity against human TZM-bl cells at 20 uM. The class given is cell-based.
The next data set concerns COS. As to the kind of experiment: Inhibition of HIV1 NL4-3 Env-induced cell-cell fusion between viral envelope expressing African green monkey COS cells to CXCR4 receptor expressing human TZM-bl cells at 0.01 to 10 uM after overnight incubation by Bright-Glo luciferase assay. The class given is cell-based. As to conditions: Human immunodeficiency virus 1.
Data set [12] concerns Human immunodeficiency virus 1. As to the kind of experiment: Effect on binding of HIV1 3B gp120 to CD4-IgG2 at 1 to 10 ug/ml by ELISA.

The source made the active and inactive calls. The calls are words filed in the database; no cut-off is given here.

Turning to `O=C(Cc1ccc(OC(F)(F)F)cc1)NCCCCN1CCCC2=C[C@H]3C[C@H](CN4CCCC[C@H]34)[C@@H]21`, in [1], the CC50 (usually the concentration that lowers cell viability or growth by half) at 72 h is 23 µM. In addition, the half-maximal effective concentration (EC50) – broadly, the concentration that produces a half-maximal response – in data set [2] came out at 0.75 µM; in data set [3] it was 2.2 µM; in data set [4], 4.3 µM; in data set [5], 1.4 µM; in data set [6], 2.5 µM; in [7] it was 2.8 µM. In addition, the EC50 in data set [8] turned out to be 2.1 µM; in data set [9] it was 1.6 µM; in data set [10], 0.9 µM. Moreover, in [11], the Activity result is “Non-toxic”. Also, the inhibition entry with COS was “Active”. Also, the result in data set [12] was inactive.
